Like-named read-outs stand apart in the source and are kept apart here. One block for each molecule: values may come before it. Where no end group is shown, it is not given here.
How the values were obtained:
ATAD2 BRD = settings: induces dimerization of the ATAD2 BRD to block binding to acetylated histones; cited from earlier work
[1] = target: T1, human ATAD2B BRD-containing protein (residues 953–1085) (Homo sapiens, UniProt Q9ULI0); settings: read-out: KD for ATAD2B; ITC; cited from earlier work
T1 sequence (Q9ULI0 953-1085): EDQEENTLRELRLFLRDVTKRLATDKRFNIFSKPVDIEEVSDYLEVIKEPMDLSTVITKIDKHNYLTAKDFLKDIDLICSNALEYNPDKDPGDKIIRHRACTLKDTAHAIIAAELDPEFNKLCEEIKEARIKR

[2] = target: T1, human ATAD2B BRD-containing protein (residues 953–1085); experiment: ITC of histone peptides with the ATAD2B BRD
[3] = target: T2, Human ATAD2 BRD-containing protein (residues 966–1112) (Homo sapiens, UniProt Q6PL18); settings: read-out: KD for ATAD2; ITC; cited from earlier work
T2 sequence (Q6PL18 966-1112): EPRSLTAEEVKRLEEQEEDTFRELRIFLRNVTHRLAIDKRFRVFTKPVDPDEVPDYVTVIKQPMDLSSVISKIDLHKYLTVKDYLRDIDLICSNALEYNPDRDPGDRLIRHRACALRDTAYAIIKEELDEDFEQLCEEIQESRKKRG

Molecule: COc1cc(Cl)c(C(=O)N[C@@H](CN[C@H]2CC[C@@H](N)CC2)Cc2ccc(C#N)cc2)cc1-c1ccc(CN[C@H](C)c2ccc(C)cc2)o1 [BAY-850]
IC50 (ATAD2 BRD): 20 nM

Molecule: H4K5ac (1–15): wild-type histone H4K5ac ligand residues 1–15, values from earlier papers
Kd [1]: 5.2 ± 1 µM

Kd [2]: 90 ± 12.8 µM
Molecule: SGRGKTGGK(Ac)ARAKAKSR-NH2 [H2A.XK9ac (1–17)]

Molecule: SGRGKacQGGKARA [H2AK5ac (1–12)]
Kd [1]: 42.5 ± 2.9 µM | Kd [3]: 38.9 ± 5.9 µM
